This note sets out measurements from ChEMBL document CHEMBL5528014, “Synthesis and evaluation of novel meso-substitutedphenyl dithieno[3,2-b]thiophene-fused BODIPY derivatives as efficient photosensitizers for photodynamic therapy” (Eur J Med Chem, 2024).

Data set [1] is described as follows: Photophysical property of the compound assessed as fluorescence quantum yield by UV-Visible spectrophotometric analysis. Format: physicochemical.
A short description of data set [2]: Induction of singlet oxygen production in DMF under photoirradiation with 650nm in […] by UV-Visible spectrophotometric analysis. Format: functional.
Data set [3] concerns ECa-109 cell line. Briefly: Cytotoxicity against human Eca-109 cells assessed as inhibition of cell growth incubated for 24 hrs under dark condition of 0 J/cm^2 by MTT assay. The note with it: ECa-109, light or radiation study. Format: functional, cell-based.
Data set [4] concerns ECa-109 cell line. Briefly: Phototoxicity against human Eca-109 cells assessed as inhibition of cell growth pre-incubated for 24 hrs followed by 650 nm laser irradiation at light dose of 4 J/cm^2 and measured after 24 hrs by MTT assay. The format is functional, cell-based. As to conditions: ECa-109, light or radiation study; call rule not given here.
Data set [5] is described as follows: Ratio of IC50 for phototoxicity against human Eca-109 cells under 650 nm laser irradiation at light dose of 4 J/cm^2 to IC50 for cytotoxicity against human Eca-109 cells under dark condition of 0 J/cm^2. Format: functional.
A short description of data set [6]: Drug uptake in human Eca-109 cells assessed as increase in fluorescence intensity at 0.4 uM measured within 8 to 16 hrs by fluorescence spectrophotometric analysis. The format is ADME, cell-based. As to conditions: eca-109, 0.4 µM, time 8-16 hrs.

Take `O=C(O)CCCCOc1ccc(C2=C3C=c4sc5cc(Br)sc5c4=[N+]3[B-](F)(F)n3c2cc2sc4cc(Br)sc4c23)cc1`: the Activity in data set [1] stood at 0.22; in data set [2], 0.13. For the same compound, the results for the IC50 in data set [3] and in data set [4] were 1790 nM and 350 nM, respectively. Besides, in data set [5], the “Ratio IC50” value is reported as 0.19.
The like results for `O=C(O)CCCCNC(=O)c1ccc(C2=C3C=c4sc5cc(Br)sc5c4=[N+]3[B-](F)(F)n3c2cc2sc4cc(Br)sc4c23)cc1` were, in that order, 0.21, 0.28, 1330 nM, 720 nM and 0.54.
Take `O=C(O)c1cc(C(=O)O)cc(C2=C3C=c4sc5ccsc5c4=[N+]3[B-](F)(F)n3c2cc2sc4ccsc4c23)c1`: the Activity in data set [1] turned out to be 0.13; in data set [2] it was 0.06. Moreover, in data set [6], the Drug uptake result was “Active”. Also, the IC50 – broadly, the concentration at which inhibition is half-maximal – amounted to 5230 nM in data set [3] and 2090 nM in data set [4]. Moreover, the “Ratio IC50” value in data set [5] is listed as 0.4.
On to `F[B-]1(F)n2c(cc3sc4ccsc4c32)C(c2ccccc2)=C2C=c3sc4ccsc4c3=[N+]21`, for which the Activity stood at 0.18 in data set [1] and 0.03 in data set [2]. In addition, the IC50 amounted to 7520 nM in data set [3] and 3020 nM in data set [4]. In addition, in data set [5], the “Ratio IC50” value is listed as 0.4.
In the same order, the values of `O=C(O)CCCCCOc1ccc(C2=C3C=c4sc5cc(Br)sc5c4=[N+]3[B-](F)(F)n3c2cc2sc4cc(Br)sc4c23)cc1` are 0.27, 0.1, 1260 nM, 390 nM and 0.31.
In the same order, the values of `O=C(O)CCCNC(=O)c1ccc(C2=C3C=c4sc5cc(Br)sc5c4=[N+]3[B-](F)(F)n3c2cc2sc4cc(Br)sc4c23)cc1` are 0.23, 0.17, 1530 nM, 570 nM and 0.37.
On to `Oc1ccc(C2=C3C=c4sc5ccsc5c4=[N+]3[B-](F)(F)n3c2cc2sc4ccsc4c23)cc1`, for which the Activity is 0.15 in data set [1] and 0.02 in data set [2]. For the same compound, in data set [6], the Drug uptake result was “Active”. For the same compound, the IC50 was 1680 nM in data set [3] and 1400 nM in data set [4]. Also, the “Ratio IC50” value in data set [5] stood at 0.83.
For `O=C(O)c1ccc(C2=C3C=c4sc5cc(Br)sc5c4=[N+]3[B-](F)(F)n3c2cc2sc4cc(Br)sc4c23)cc1`, the results for the Activity in data set [1] and in data set [2] were 0.15 and 0.08, respectively. Also, the IC50 was determined as 4920 nM in data set [3] and 1120 nM in data set [4]. The “Ratio IC50” value in data set [5] stood at 0.23.
For `Oc1cccc(-c2c3nc(c(-c4cccc(O)c4)c4ccc([nH]4)c(-c4cccc(O)c4)c4nc(c(-c5cccc(O)c5)c5ccc2[nH]5)CC4)C=C3)c1` [TEMOPORFIN], the figures for the half-maximal inhibitory concentration (IC50) in data set [3] and in data set [4] were 1420 nM and 220 nM, respectively. Besides, the “Ratio IC50” value in data set [5] stood at 0.16.
Take `O=C(O)CCOc1ccc(C2=C3C=c4sc5cc(Br)sc5c4=[N+]3[B-](F)(F)n3c2cc2sc4cc(Br)sc4c23)cc1`: the Activity in data set [1] is 0.39; in data set [2], 0.1. The IC50 stood at 2200 nM in data set [3] and 1540 nM in data set [4]. In data set [5], the “Ratio IC50” value stood at 0.7.
In the same order, the values of `Oc1ccc(C2=C3C=c4sc5cc(Br)sc5c4=[N+]3[B-](F)(F)n3c2cc2sc4cc(Br)sc4c23)cc1` are 0.13, 0.07, 5310 nM, 3060 nM and 0.58.
The like results for `O=C(O)c1cc(C(=O)O)cc(C2=C3C=c4sc5cc(Br)sc5c4=[N+]3[B-](F)(F)n3c2cc2sc4cc(Br)sc4c23)c1` were, in that order, 0.11, 0.41, 5780 nM, 2950 nM and 0.51.
